Results reported in US8586588B2, “Aryl pyridazinone derivatives and their use as H3 receptor ligands” (Cephalon, Inc., priority 2006, dated 2013).
Where “and” joins values, the source holds several entries; their conditions need not be identical. Equal values may be shown once. Read-outs that look alike come from different tables or passages of the source.

Key:
human H3 receptor = biological target: T1, human H3 receptor (Homo sapiens, UniProt Q9Y5N1); experiment: Human H3 radioligand binding ([3H]-N-alpha-methylhistamine, CHO cell membranes, SPA); settings: binding constant as letter class
T1 construct: expressed in transfected cells
Summary of the method: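 CHO cell membranes expressing human H3 (10 μg protein/well) incubated 4 h at room temperature, in the dark, with ~1 nM [3H]-N-alpha-methylhistamine, compounds (0.01 nM-30 μM) and SPA beads in 50 mM Tris HCl pH 7.4, 5 mM MgCl2, 0.1% BSA. Non-specific binding defined with 10 μM clobenpropit.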

[1] = biological target: T2, rat histamine H3 receptor (Rattus norvegicus, UniProt Q9QYN8); experiment: Rat H3 radioligand binding ([3H]-N-alpha-methylhistamine, CHO-A3 cell membranes, SPA)
T2 construct: encoding the entire 445-amino-acid rat histamine H3 receptor; expressed in transfected cells
Summary of the method: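 Membranes from CHO-A3 cells stably expressing rat H3 (10 μg protein) incubated 4 h at room temperature in 50 mM Tris-HCl pH 7.4, 5 mM MgCl2, 0.1% BSA with ~1 nM [3H]-N-alpha-methylhistamine and compound (0.01 nM-30 μM). Bound radioligand read by scintillation proximity; nonspecific binding with 10 μM clobenpropit.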

[2] = Table A, binding constant as letter class, read-out: Rat H3 Ki
[3] = Table B, binding constant as letter class, read-out: rat H3 Ki

T1 sequence (Q9Y5N1 whole entry): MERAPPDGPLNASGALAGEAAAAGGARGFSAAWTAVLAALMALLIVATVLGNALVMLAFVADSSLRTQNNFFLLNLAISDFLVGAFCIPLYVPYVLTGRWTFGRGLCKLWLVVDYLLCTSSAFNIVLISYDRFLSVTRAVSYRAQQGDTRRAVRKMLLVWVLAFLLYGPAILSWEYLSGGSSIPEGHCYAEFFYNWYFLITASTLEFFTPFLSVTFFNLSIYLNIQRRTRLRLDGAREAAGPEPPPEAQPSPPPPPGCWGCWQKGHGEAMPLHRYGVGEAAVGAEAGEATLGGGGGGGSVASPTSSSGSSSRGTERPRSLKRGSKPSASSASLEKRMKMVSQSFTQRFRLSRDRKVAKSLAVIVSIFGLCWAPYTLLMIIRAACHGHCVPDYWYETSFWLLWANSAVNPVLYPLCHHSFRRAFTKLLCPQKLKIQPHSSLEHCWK
T2 sequence (Q9QYN8 whole entry): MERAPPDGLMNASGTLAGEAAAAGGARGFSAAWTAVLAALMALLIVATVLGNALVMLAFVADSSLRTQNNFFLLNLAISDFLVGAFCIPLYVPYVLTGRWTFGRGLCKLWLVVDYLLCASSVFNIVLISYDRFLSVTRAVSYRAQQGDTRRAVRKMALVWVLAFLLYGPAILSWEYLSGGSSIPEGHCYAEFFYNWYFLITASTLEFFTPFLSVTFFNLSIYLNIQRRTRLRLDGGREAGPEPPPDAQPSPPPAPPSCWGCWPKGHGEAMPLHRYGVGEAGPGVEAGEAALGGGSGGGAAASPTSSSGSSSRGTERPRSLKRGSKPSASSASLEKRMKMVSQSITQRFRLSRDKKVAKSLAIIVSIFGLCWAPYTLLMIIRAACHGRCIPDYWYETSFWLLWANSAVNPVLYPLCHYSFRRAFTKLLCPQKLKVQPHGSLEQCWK

Ki (human H3 receptor; Table A) [nM]	Ki [1, 2] [nM]	Ki (human H3 receptor; Table B) [nM]	Ki [1, 3]	Ki ([1]; Table B, cell prints a number instead of a letter, read-out: rat H3 Ki) [nM]	SMILES
0.1 to 100	101 to 500	–	–	–	CC(C)n1nc(-c2ccc(OCCCN3[C@H](C)CC[C@H]3C)cc2)c2sccc2c1=O [Example 31, 7-{4-[3-((2R,5R)-2,5-Dimethyl-pyrrolidin-1-yl)-propoxy]-phenyl}-5-isopropyl-5H-thieno[2,3-d]pyridazin-4-one]
–	–	0.1 to 100	0.1 to 100 nM	–	C[C@@H]1CCCN1CCCOc1ccc(C2=NNC(=O)C(c3ccccn3)C2)cc1 (stereo partly drawn) [Example 216, 6-{4-[3-((R)-2-Methyl-pyrrolidin-1-yl)-propoxy]-phenyl}-4-pyridin-2-yl-4,5-dihydro-2H-pyridazin-3-one]
0.1 to 100	0.1 to 100	–	–	–	C[C@@H]1CCCN1CCCOc1ccc2c(c1)CCc1cc(=O)n(-c3ccccc3)nc1-2 [Example 76, 8-[3-((R)-2-Methyl-pyrrolidin-1-yl)-propoxy]-2-phenyl-5,6-dihydro-2H-benzo[h]cinnolin-3-one]
–	–	0.1 to 100	0.1 to 100 nM	–	Cc1nn(-c2ccsc2)c(=O)cc1-c1ccc(OC2CCN(C3CCC3)CC2)cc1 [Example 107, 5-[4-(1-Cyclobutyl-piperidin-4-yloxy)-phenyl]-6-methyl-2-thiophen-3-yl-2H-pyridazin-3-one]
–	–	0.1 to 100	0.1 to 100 nM	–	C[C@@H](COc1ccc(-c2ccc(=O)n(C)n2)cc1)CN1CCC[C@H]1C [Example 82, 2-Methyl-6-{4-[(R)-2-methyl-3-((R)-2-methyl-pyrrolidin-1-yl)-propoxy]-phenyl}-2H-pyridazin-3-one]
0.1 to 100	0.1 to 100	–	–	–	Cn1nc(-c2ccc(OCCCN3CCCCC3)cc2)c2c(c1=O)CCC2 [Example 57, 2-Methyl-4-[4-(3-piperidin-1-yl-propoxy)-phenyl]-2,5,6,7-tetrahydro-cyclopenta[d]pyridazin-1-one]
–	–	0.1 to 100	–	5	Cc1n[nH]c(=O)cc1-c1ccc(OCCCN2CCCCCC2)cc1 [Example 90, 5-[4-(3-Azepan-1-yl-propoxy)-phenyl]-6-methyl-2H-pyridazin-3-one]
–	–	0.1 to 100	0.1 to 100 nM	–	CC1CC(=O)NN=C1c1ccc(OCCCN2CCCC2)cc1 (racemic) [Example 198, 5-Methyl-6-[4-(3-pyrrolidin-1-yl-propoxy)-phenyl]-4,5-dihydro-2H-pyridazin-3-one]
0.1 to 100	0.1 to 100	–	–	–	Cc1cc(-c2ccc(OCCCN3CCC[C@H]3C)cc2)nn(C(C)C)c1=O [Example 41, 2-Isopropyl-4-methyl-6-{4-[3-((R)-2-methyl-pyrrolidin-1-yl)-propoxy]-phenyl}-2H-pyridazin-3-one]
0.1 to 100	0.1 to 100	–	–	–	Cn1nc(-c2ccc(OCCCN3CCCCC3)cc2)c(-c2ccccc2)cc1=O [Example 48, 2-Methyl-5-phenyl-6-[4-(3-piperidin-1-yl-propoxy)-phenyl]-2H-pyridazin-3-one]
–	–	0.1 to 100	501 to 1000 nM and 0.1 to 100 nM	–	Cn1nc(-c2ccc(OC3CCN(C4CCCC4)CC3)nc2)ccc1=O [Example 143, 6-[6-(1-Cyclopentyl-piperidin-4-yloxy)-pyridin-3-yl]-2-methyl-2H-pyridazin-3-one]
–	–	0.1 to 100	0.1 to 100 nM	–	O=C1CCC(c2ccc(OC3CCN(C4CCC4)CC3)cc2F)=NN1 [Example 219, 6-[4-(1-Cyclobutyl-piperidin-4-yloxy)-2-fluoro-phenyl]-4,5-dihydro-2H-pyridazin-3-one]
0.1 to 100	101 to 500	–	–	–	O=c1c2ccsc2c(-c2ccc(OCCCN3CCCCC3)cc2)nn1Cc1ccc(Cl)cc1 [Example 37, 5-(4-Chloro-benzyl)-7-[4-(3-piperidin-1-yl-propoxy)-phenyl]-5H-thieno[2,3-d]pyridazin-4-one]
0.1 to 100	0.1 to 100	–	–	–	Cn1nc(-c2ccc(OCCCN3CCCC3)cc2)c2ccccc2c1=O [Example 52, 2-Methyl-4-[4-(3-pyrrolidin-1-yl-propoxy)-phenyl]-2H-phthalazin-1-one]
0.1 to 100	0.1 to 100	–	–	–	C[C@@H]1CCCN1CCCOc1ccc(-c2n[nH]c(=O)c3c2CCC3)cc1 [Example 12, 4-{4-[3-((R)-2-Methyl-pyrrolidin-1-yl)-propoxy]-phenyl}-2,5,6,7-tetrahydro-cyclopenta[d]pyridazin-1-one]
